Laboratory results reported in patent US20100292210A1, “Novel Compounds for A-Beta-Related Pathologies” (AstraZeneca AB, priority 2009, published 2010).

These compounds were tested on Aβ42 release (assay: Aβ42 release from HEK cells stably expressing APPswe, Meso Scale Discovery electrochemiluminescence assay). Settings: Homo sapiens, HEK293; HEK cell line stably expressing APPswe; 4-6 h incubation with test compound; Aβ42 secreted to cell medium; read-out: pIC50 values of Aβ42 release (converted).
Assay type: cell-based
Protocol: The level of activity of the compounds on Aβ formation was tested using the following method:
Compounds were diluted in 100% DMSO and stored at […] prior to use. Human Embryonic Kidney (HEK) cell line stably expressing APP with the Swedish mutation (APPswe) were cultured using Dulbecco's Modified Eagles medium (DMEM) supplied with […] glucose, Na-pyruvate and GlutaMAX with 10% FBS, 100 U/ml penicillin-streptomycin (PEST) respectively, 1×non-essential amino acids (NEAA), […], 100 μg/ml Zeocine. Cells at about 80% confluence were washed with PBS, detached from culture flasks using 1×Trypsin/EDTA diluted in PBS, re-suspended in cell media and plated in 384-well poly-d-lysine coated cell culture plates at about 10000-15000 cells/well, in 25 μL cell media. Optionally, cryo-preserved cells (frozen and stored at −140° C. in 90% cell media and 10% DMSO) were thawed, washed and plated as above. Next the cells were incubated for 15-24 h at 37° C. and 5% CO2, after which cell medium was changed. Fresh medium containing test compound diluted ×200 from prepared compound plate was added to the cells before further incubation for 4-6 hours at 37° C. and 5% CO2. After incubation with test compound the amount of Aβ peptides, including Aβ42, Aβ40, Aβ39, Aβ38 and Aβ37, secreted to cell medium was analyzed using the electrochemiluminescence assay technology from Meso Scale Discovery Technology, in combination with specific antibodies raised against the different Aβ peptides. Potential cytotoxic effects of the compounds were usually assayed by measuring the ATP content (ViaLight) from cell lysate.
`COc1cc(Nc2ccc3c(n2)OC(c2cccnc2)CN(C)C3)ccc1-n1cnc(C)c1` (centres unmarked) [Example 19, N-(3-methoxy-4-(4-methyl-1H-imidazol-1-yl)phenyl)-4-methyl-2-(pyridin-3-yl)-2,3,4,5-tetrahydropyrido[3,2-f][1,4]oxazepin-8-amine] showed an IC50 of 158 nM.
`COc1cc(Nc2ccc3c(n2)O[C@H](c2ccccc2)CN(C(=O)N(C)C)C3)ccc1-n1cnc(C)c1` [Example 40, (R)-8-(3-Methoxy-4-(4-methyl-1H-imidazol-1-yl)phenylamino)-N,N-dimethyl-2-phenyl-2,3-dihydropyrido[3,2-f][1,4]oxazepine-4(5H)-carboxamide] gave an IC50 of 50.1 nM.
`CN1Cc2ccc(Nc3ccc(-n4ccnc4)cc3)nc2OC(c2ccccc2)C1` (centres unmarked) [Example 18, N-(4-(1H-imidazol-1-yl)phenyl)-4-methyl-2-phenyl-2,3,4,5-tetrahydropyrido[3,2-f][1,4]oxazepin-8-amine] was tested, and the IC50 was 100 nM.
With `COc1cc(Nc2ccc3c(n2)O[C@H](c2ccccc2)CN(CC#N)C3)ccc1-n1cnc(C)c1` [Example 47, (R)-2-(8-(3-Methoxy-4-(4-methyl-1H-imidazol-1-yl)phenylamino)-2-phenyl-2,3-dihydropyrido[3,2-f][1,4]oxazepin-4(5H)-yl)acetonitrile] the IC50 was 15.8 nM.
`Cc1nccn1-c1ccc(Nc2ccc3c(n2)OC(c2ccccc2)CN(C)C3=O)cn1` (centres unmarked) [Example 6, 4-methyl-8-(6-(2-methyl-1H-imidazol-1-yl)pyridin-3-ylamino)-2-phenyl-3,4-dihydropyrido[3,2-f][1,4]oxazepin-5(2H)-one] was tested, and the IC50 was 6310 nM.
`COc1cc(Nc2ccc3c(n2)O[C@H](c2ccccc2)CN(C2CC2)C3)ccc1-n1cnc(C)n1` [Example 45, (R)-4-Cyclopropyl-N-(3-methoxy-4-(3-methyl-1H-1,2,4-triazol-1-yl)phenyl)-2-phenyl-2,3,4,5-tetrahydropyrido[3,2-f][1,4]oxazepin-8-amine] showed an IC50 of 25.1 nM.
Work on `Cc1cncn1-c1ccc(Nc2ccc3c(n2)O[C@H](c2ccccc2)CN(CCO)C3)cc1` [Example 30, (R)-2-(8-(4-(5-methyl-1H-imidazol-1-yl)phenylamino)-2-phenyl-2,3-dihydropyrido[3,2-f][1,4]oxazepin-4(5H)-yl)ethanol] yielded an IC50 of 631 nM.
Compound `COc1cc(Nc2ccc3c(n2)O[C@H](c2ccccc2)CN(C)C3)ccc1-n1cnc(C)n1` [Example 44, (R)—N-(3-Methoxy-4-(3-methyl-1H-1,2,4-triazol-1-yl)phenyl)-4-methyl-2-phenyl-2,3,4,5-tetrahydropyrido[3,2-f][1,4]oxazepin-8-amine] has an IC50 of 31.6 nM.
For `CN1Cc2ccc(Nc3ccc(-c4cnn(C)c4)nc3)nc2O[C@H](c2ccccc2)C1` [Example 58, (R)-4-Methyl-N-(6-(1-methyl-1H-pyrazol-4-yl)pyridin-3-yl)-2-phenyl-2,3,4,5-tetrahydropyrido[3,2-f][1,4]oxazepin-8-amine], the IC50 was 316 nM.
`COc1cc(Nc2ccc3c(n2)O[C@H](c2ccccc2)CN(CCO)C3)ccc1-n1cncc1C` [Example 34, (R)-2-(8-(3-Methoxy-4-(5-methyl-1H-imidazol-1-yl)phenylamino)-2-phenyl-2,3-dihydropyrido[3,2-f][1,4]oxazepin-4(5H)-yl)ethanol] showed an IC50 of 251 nM.
`COc1cc(Nc2ccc3c(n2)OC(c2cc(C)nn2C)CN(CC#N)C3)ccc1-n1cnc(C)c1` (centres unmarked) [Example 33, 2-(2-(1,3-Dimethyl-1H-pyrazol-5-yl)-8-(3-methoxy-4-(4-methyl-1H-imidazol-1-yl)phenylamino)-2,3-dihydropyrido[3,2-f][1,4]oxazepin-4(5H)-yl)acetonitrile] gave an IC50 of 316 nM.
`COc1cc(Nc2ncc3c(n2)O[C@H](c2ccccc2)CN(C)C3)ccc1-n1cnc(C)c1` [Example 13, (R)—N-(3-methoxy-4-(4-methyl-1H-imidazol-1-yl)phenyl)-6-methyl-8-phenyl-5,6,7,8-tetrahydropyrimido[5,4-f][1,4]oxazepin-2-amine] showed an IC50 of 20 nM.
With `Cc1cccc(C2CN(C)Cc3ccc(Nc4ccc(-c5cnn(C)c5)nc4)nc3O2)n1` (centres unmarked) [Example 54, 4-Methyl-N-(6-(1-methyl-1H-pyrazol-4-yl)pyridin-3-yl)-2-(6-methylpyridin-2-yl)-2,3,4,5-tetrahydropyrido[3,2-f][1,4]oxazepin-8-amine] the IC50 was over 3160 nM.
`COc1cc(Nc2ccc3c(n2)OC(c2ccccn2)CN(CC#N)C3)ccc1-n1cnc(C)c1` (centres unmarked) [Example 36, 2-(8-(3-Methoxy-4-(4-methyl-1H-imidazol-1-yl)phenylamino)-2-(pyridin-2-yl)-2,3-dihydropyrido[3,2-f][1,4]oxazepin-4(5H)-yl)acetonitrile] gave an IC50 of 158 nM.
In the case of `Cc1noc(-c2ccc(Nc3ccc4c(n3)OC(c3ccccc3)CN(C)C4=O)cc2)n1` (centres unmarked) [Example 1, 4-methyl-8-(4-(3-methyl-1,2,4-oxadiazol-5-yl)phenylamino)-2-phenyl-3,4-dihydropyrido[3,2-f][1,4]oxazepin-5(2H)-one], the IC50 is reported as 1580 nM.
`COc1cc(Nc2ccc3c(n2)O[C@H](c2ccccc2)CNC3)ccc1-n1cnc(C)c1` [Example 55, (R)—N-(3-Methoxy-4-(4-methyl-1H-imidazol-1-yl)phenyl)-2-phenyl-2,3,4,5-tetrahydropyrido[3,2-f][1,4]oxazepin-8-amine] gave an IC50 of 31.6 nM.
Work on `COc1cc(Nc2ccc3c(n2)OC(c2ccccc2)CN(C)C3=O)ccc1-n1cnc(C)c1` (centres unmarked) [Example 4, 8-(3-methoxy-4-(4-methyl-1H-imidazol-1-yl)phenylamino)-4-methyl-2-phenyl-3,4-dihydropyrido[3,2-f][1,4]oxazepin-5(2H)-one] yielded an IC50 of 200 nM.
Work on `Cc1ncn(-c2ccc(Nc3ccc4c(n3)O[C@H](c3ccccc3)CN(C)C4)cc2)n1` [Example 48, (R)-4-Methyl-N-(4-(3-methyl-1H-1,2,4-triazol-1-yl)phenyl)-2-phenyl-2,3,4,5-tetrahydropyrido[3,2-f][1,4]oxazepin-8-amine] yielded an IC50 of 100 nM.
Work on `COc1cc(Nc2ccc3c(n2)OC(C2CC2)CN(C)C3)ccc1-n1cnc(C)c1` (centres unmarked) [Example 49, 2-Cyclopropyl-N-(3-methoxy-4-(4-methyl-1H-imidazol-1-yl)phenyl)-4-methyl-2,3,4,5-tetrahydropyrido[3,2-f][1,4]oxazepin-8-amine] yielded an IC50 of 100 nM.
For `CN1CC(c2ccccc2)Oc2nc(Nc3ccc(-c4cnco4)cc3)ccc2C1=O` (centres unmarked) [Example 3, 4-methyl-8-(4-(1,3-oxazol-5-yl)phenylamino)-2-phenyl-3,4-dihydropyrido[3,2-f][1,4]oxazepin-5(2H)-one], the IC50 was 398 nM.
`COc1cc(Nc2ccc3c(n2)OC(c2cccc(C)n2)CN(C)C3)ccc1-n1cnc(C)n1` (centres unmarked) [Example 52, N-(3-Methoxy-4-(3-methyl-1H-1,2,4-triazol-1-yl)phenyl)-4-methyl-2-(6-methylpyridin-2-yl)-2,3,4,5-tetrahydropyrido[3,2-f][1,4]oxazepin-8-amine] gave an IC50 of 398 nM.
`Cc1nccn1-c1ccc(Nc2ccc3c(n2)OC(c2ccccc2)CN(C)C3)cn1` (centres unmarked) [Example 23, 4-methyl-N-(6-(2-methyl-1H-imidazol-1-yl)pyridin-3-yl)-2-phenyl-2,3,4,5-tetrahydropyrido[3,2-f][1,4]oxazepin-8-amine] showed an IC50 of 501 nM.
Compound `CN1Cc2ccc(Nc3ccc(-c4cnn(C)c4)cc3)nc2O[C@H](c2ccccc2)C1` [Example 59, (R)-4-Methyl-N-(4-(1-methyl-1H-pyrazol-4-yl)phenyl)-2-phenyl-2,3,4,5-tetrahydropyrido[3,2-f][1,4]oxazepin-8-amine] has an IC50 of 79.4 nM.
